Assay results as given in patent US20110020312A1, “METHODS FOR TREATMENT OF METABOLIC DISORDERS USING EPIMETABOLIC SHIFTERS, MULTIDIMENSIONAL INTRACELLULAR MOLECULES, OR ENVIRONMENTAL INFLUENCERS” (priority 2009, published 2011).

Key:
MCF-7 cells = experiment: Nexin assay for apoptosis, 24 h Q10; format: cell-based; details: 50 μM and 100 μM Q10, 24 hours
Description: The 7AAD dye will enter into cells with permeabilized cell membranes; primarily those cells that are in late apoptosis. Annexin-V-PE is a dye that binds to Phosphotidyl serine, which is exposed on the outer surface of the plasma membrane in early apoptotic cells. The Nexin reagent thus can be used to differentiate between different populations of apoptotic cells in a flow cytometer.

SCC cells = experiment: Real-time PCR Diabetes Array; format: cell-based; details: 100 μM
Description: The control cells were untreated cells.

[1] = system: Lactate Dehydrogenase (LDH); experiment: Western blot, Lactate Dehydrogenase levels; format: cell-based, human
Experimental: The samples were processed and run on a 4-12% Bis-Tris Novex NuPAGE gel as described above. The gels were run, transferred and stained essentially as described above.
After transfer each blot was dried for 15-20 minutes, activated with methanol for 5 seconds, washed with water for 5 minutes, and TBST for 15 minutes. The blots were blocked for 1 hour with 5% blocking reagent in TBS-T at room temperature and then washed 3 times with TBS-T (1×-15′; 2×5′ each) and probed with the primary antibody for Lactate Dehydrogenase (abcam ab2101; polyclonal) in 5% BSA (at 1:1000 dilutions) by incubation overnight at 4 deg C. with shaking. After the overnight incubation with primary antibody for Lactate Dehydrogenase, the blots were washed 3 times with TBS-T (1×-15′; 2×5′ each) and probed with the secondary antibody (rabbit antigoat; 1:10,000 dilution) for 1 h at room temperature. After 1 h of incubation with secondary antibodies, the blots were washed 3 times with TBS-T (1×-15′; 2×5′ each) and then incubated with ECF reagent for 5 mins and then each blot scanned with 5100 Fuji Laser scanner at 25 uM resolution, 16 bit, green laser, at 400V and at 500 V.
The PACA2 samples were processed and the gels were run, transferred, stained and scanned essentially as described above.
The levels of LDH and PDH were determined by probing the blots successively with primary antibodies for LDH and PDH, essentially as described above.
The above blots were stripped by incubating for 30 minutes with methanol, followed by two 10 minute washes with TBS-T, then 30 minutes of incubation with Stripping buffer at 50 deg C., and followed by two washes with 100 ml or more of TBS-T for 30′ each. The blots were scanned in laser scanner to check for complete stripping. The blots were activated with methanol for 5 seconds, washed with water for 5 minutes, and TBST for 15 minutes. The blots were blocked for 1 hour with 5% blocking reagent in TBS-T at room temperature and then washed 3 times with TBS-T (1×-15′; 2×5′ each) and probed with the primary antibody for LDH or Bik in 5% BSA in TBS-T by incubation overnight at 4 deg C. with gentle shaking. The primary antibody for LDH was from Abcam ab2101; antigoat; at 1:1000 dilution. The primary antibody for Bik was from Cell Signaling #9942; antirabbit; at 1:1000 dilution. After incubation with primary antibodies, the membranes were washed 3 times with TBS-T (1×-15′; 2×5′ each) and probed with the secondary antibody (LDH antigoat; Jackson Laboratories) and Bik antirabbit; 1:10,000 dilution) for 1 h on the orbital tilting shaker at room temperature. After 1 h of incubation, the blots were washed 3 times with TBS-T (1×-15′; 2×5′ each) and incubated with ECF reagent for 5 minutes and then each blot scanned with 5100 Fuji Laser scanner at 25 uM resolution, 16 bit, green laser, at 400V and at 500 V.
The above blots were stripped by incubating for 30 minutes with methanol, followed by two 10 minute washes with TBS-T, then 30 minutes of incubation with stripping buffer at 50 deg C., and followed by two washes with 100 ml or more of TBS-T for 30′ each. The blots were activated with methanol for 5 seconds, washed with water for 5 minutes, and TBST for 15 minutes. The blots ere blocked for 1 hour with 5% blocking reagent in TBS-T at room temperature and then washed 3 times with TBS-T (1×-15′; 2×5′ each) and probed with the primary antibody for LDH in 5% BSA or 5% milk by incubation overnight at 4 deg C. with gentle shaking. The primary antibody for LDH 080309b1 (Abcam ab2101; antigoat) was at 1:1000 dilution in 5% BSA. The primary antibody for LDH 080309b2 (Abcam ab2101; antigoat) was at 1:1000 dilution in 5% milk. After incubation with primary antibodies, the membranes were washed 3 times with TBS-T (1×-15′; 2×5′ each) and probed with the secondary antibody (Jackson Immuno Research antigoat; 1:10,000 dilution; 305-055-045) for 1 h. […]

HK-2 cells = experiment: Diabetes PCR array in cell model for diabetes (22 mM glucose); format: cell-based, human
Experimental: The HK-2 and HASMC cells are normally maintained in culture at 5.5 mM glucose, which is a concentration that corresponds to a range considered normal in human blood. However, in order to simulate a diabetic environment, both cell lines were subsequently maintained at 22 mM glucose, which corresponds to the range observed in human blood associated with chronic hyperglycemia. The cells were subsequently allowed to propagate over 3 passages so that the intracellular regulation processes were functionally adapted to mimic a diabetic state. The choice of cell line was based on the physiologic influence of diabetes on renal dysfunction and progression to end-stage renal disease (ESRD) in addition to the progressive pathophysiology of a compromised cardiovascular function.
The Diabetes PCR array (SABiosciences) offers a screen for 84 genes simultaneously.
A stringent analysis of the Real time PCR data of the HK-2 samples on the Diabetes Arrays (Cat # PAHS-023E, SABiosciences Frederick Md.) was made to exclude all results where gene regulation was not at least a two-fold regulation over HK-2 normal untreated cells with a p value of less than 0.05.

COC1=C(OC)C(=O)C(C/C=C(\C)CC/C=C(\C)CC/C=C(\C)CC/C=C(\C)CC/C=C(\C)CC/C=C(\C)CC/C=C(\C)CC/C=C(\C)CC/C=C(\C)CCC=C(C)C)=C(C)C1=O [Q10, Coenzyme Q10]
early/late apoptotic population (MCF-7 cells): increase only in early apoptotic population | TNFRSF1A gene Regulation (SCC cells; at 6 and 24 hours): Down regulated | G6PD gene Regulation (SCC cells; at 6 hours): Down regulated | ICAM1 gene Regulation (SCC cells; at 6 hours): Down regulated | INPPL1 gene Regulation (SCC cells; at 6 hours): Down regulated | NOS3 gene Regulation (SCC cells; at 6 hours): Down regulated | PIK3CD gene Regulation (SCC cells; at 6 hours): Down regulated | PPARA gene Regulation (SCC cells; at 6 hours): Down regulated | PYGL gene Regulation (SCC cells; at 6 hours): Down regulated | SREBF1 gene Regulation (SCC cells; at 6 hours): Down regulated | STXBP2 gene Regulation (SCC cells; at 6 hours): Down regulated | TNF gene Regulation (SCC cells; at 6 hours): Down regulated | VEGFA gene Regulation (SCC cells; at 6 hours): Down regulated | Lactate Dehydrogenase Average Volume as a % ([1]; HepG2, 5g24-50, 2 Experiments): 64% | Lactate Dehydrogenase Average Volume as a % ([1]; HepG2, 5g24-100, 2 Experiments): 106% | Lactate Dehydrogenase Average Volume as a % ([1]; HepG2, 5g48-50, 2 Experiments): 112% | Lactate Dehydrogenase Average Volume as a % ([1]; HepG2, 5g48-100, 2 Experiments): 121% | Lactate Dehydrogenase Normalized Volume ([1]; HepG2, 5g-50, 24 h): 7900 | Lactate Dehydrogenase Normalized Volume ([1]; HepG2, 5g-50, 48 h): 5188 | Lactate Dehydrogenase Normalized Volume ([1]; HepG2, 5g-100, 24 h): 6616 | Lactate Dehydrogenase Normalized Volume ([1]; HepG2, 5g-100, 48 h): 7319 | Lactate Dehydrogenase Average Volume as a % ([1]; HepG2, 22G24-50, 2 Experiments): 121% | Lactate Dehydrogenase Average Volume as a % ([1]; HepG2, 22G24-100, 2 Experiments): 144% | Lactate Dehydrogenase Average Volume as a % ([1]; HepG2, 22G48-50, 2 Experiments): 95% | Lactate Dehydrogenase Average Volume as a % ([1]; HepG2, 22G48-100, 2 Experiments): 67% | Lactate Dehydrogenase Normalized Volume ([1]; HepG2, 22G-50, 24 h): 7550 | Lactate Dehydrogenase Normalized Volume ([1]; HepG2, 22G-50, 48 h): 6173 | Lactate Dehydrogenase Normalized Volume ([1]; HepG2, 22G-100, 24 h): 7124 | Lactate Dehydrogenase Normalized Volume ([1]; HepG2, 22G-100, 48 h): 9141 | Lactate Dehydrogenase Normalized Volume ([1]; PACA2, 5g-50, 24 h): 5068 | Lactate Dehydrogenase Normalized Volume ([1]; PACA2, 5g-50, 48 h): 2978 | Lactate Dehydrogenase Normalized Volume ([1]; PACA2, 5g-100, 24 h): 3675 | Lactate Dehydrogenase Normalized Volume ([1]; PACA2, 5g-100, 48 h): 2396 | Lactate Dehydrogenase Normalized Volume ([1]; PACA2, 22G-50, 24 h): 10218 | Lactate Dehydrogenase Normalized Volume ([1]; PACA2, 22G-50, 48 h): 2575 | Lactate Dehydrogenase Normalized Volume ([1]; PACA2, 22G-100, 24 h): 7158 | Lactate Dehydrogenase Normalized Volume ([1]; PACA2, 22G-100, 48 h): 3557 | Lactate Dehydrogenase (LDH) expression ([1]; cancer): reduced | Lactate Dehydrogenase (LDH) expression ([1]; normal cells): minimal effect | CEACAM1 RNA transcript (HK-2 cells; HK2(H) cells, particularly with 100 μM Coenzyme Q10): highly upregulated | insulin receptor (INSR) expression (HK-2 cells; diabetic HK-2 cells): altered
